Pest or weed control data for 24 molecules are collected here from patent US20200288710A1, “SUBSTITUTED SULPHONAMIDES FOR CONTROLLING ANIMAL PESTS” (BAYER CROPSCIENCE AKTIENGESELLSCHAFT, priority 2016, published 2020).

Format in all cases: in vivo
Assay [1] has as its system Myzus persicae. The assay can be described thus: Myzus persicae oral test. As to conditions: 120 h, 20 ppm, oral uptake, after 5 days, read-out: efficacy. The method in brief: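 Aphids of mixed ages imbibe, through parafilm, compound solution (acetone stock, water-diluted) combined with sugar-supplemented IPL41 medium to 200 μl. Efficacy read at day 5 as percent killed, 0% meaning no deaths.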

The test system of the next assay is Meloidogyne incognita. The assay can be described thus: Meloidogyne incognita test. As to conditions: 336 h, lettuce, after 14 days, read-out: nematicidal efficacy (formation of galls). The method in brief:
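Gall formation on lettuce roots scored after 14 days: 0% means gall count equals untreated control, 100% means none. Sand vessels held the compound (acetone concentrate diluted in water), southern root-knot nematode egg/larvae suspension and lettuce seeds.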

The test system of a further assay is Phaedon cochleariae. The assay can be described thus: Phaedon cochleariae spray test. To be noted: foliar, 168 h, Chinese cabbage leaf discs, larvae, after 7 days, read-out: efficacy. The protocol: Phaedon cochleariae—Spray Test
To produce a suitable preparation of active compound, 1 part by weight of active compound is dissolved using the specified parts by weight of solvent and made up with water containing an emulsifier concentration of 1000 ppm until the desired concentration is attained. To produce further test concentrations, the formulation is diluted with emulsifier-containing water.
After 7 days, the efficacy in % is determined. 100% means that all the beetle larvae have been killed; 0% means that no beetle larvae have been killed.

In assay [2] the test system is Myzus persicae. Put plainly: Myzus persicae spray test (Chinese cabbage leaf discs). To be noted: foliar, 120 h, 500 g/ha, after 5-6 days, read-out: efficacy. In short, it runs like this:
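Formulated compound in acetone/dimethylformamide, diluted in water with 1000 ppm emulsifier, was sprayed onto Brassica pekinensis leaf discs carrying mixed-stage Myzus persicae. Percent mortality was read 5-6 days later (0% = no aphids killed, 100% = all killed).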

In the case of `CSc1cccc(Cl)c1S(=O)(=O)NC(=O)c1cn(C)c(-c2c(F)cccc2F)n1` [Example 385], the figures for the pest or weed control at 20 ppm with Myzus persicae [1] and in the assay on Meloidogyne incognita were 100% and 90%, respectively. The pest or weed control at 500 g/ha with Phaedon cochleariae and in the assay on Myzus persicae [2] was 100% each time.
Regarding `Cc1ccc(Br)cc1S(=O)(=O)NC(=O)c1cn(C)c(-c2c(F)cccc2F)n1` [Example 398], the pest or weed control at 20 ppm in the assay on Myzus persicae [1] turned out to be 100%; in the assay on Meloidogyne incognita, 90%. The values for the pest or weed control at 500 g/ha in the assay with Phaedon cochleariae and in the assay on Myzus persicae [2] were 100% and 90%, respectively.
In the case of `Cc1ccc(C(F)(F)F)cc1S(=O)(=O)NC(=O)c1cn(C)c(-c2c(F)cccc2F)n1` [Example 399], the figures for the pest or weed control at 20 ppm with Myzus persicae [1] and with Meloidogyne incognita were 100% and 90%, respectively. The pest or weed control at 500 g/ha in the assay on Phaedon cochleariae and with Myzus persicae [2] was 100% each time.
Consider `COc1ccc(Br)c(S(=O)(=O)NC(=O)c2cn(C)c(-c3ccccc3Cl)n2)c1` [Example 420], for which the pest or weed control at 20 ppm was found to be 100% in the assay with Myzus persicae [1] and 90% in the assay on Meloidogyne incognita. Moreover, the pest or weed control at 500 g/ha with Phaedon cochleariae came to 83%; in the assay with Myzus persicae [2] it was 100%.
As for `CSc1ccccc1S(=O)(=O)NC(=O)c1cn(C)c(-c2ccccc2Cl)n1` [Example 423], the pest or weed control at 20 ppm with Myzus persicae [1] is 100%; in the assay with Meloidogyne incognita, 90%. Besides, the pest or weed control at 500 g/ha in the assay on Phaedon cochleariae and in the assay on Myzus persicae [2] was 100% in each case.
Turning to `COc1ccc(C)c(S(=O)(=O)NC(=O)c2cn(C)c(-c3ccccc3Cl)n2)c1` [Example 424], the pest or weed control at 20 ppm in the assay with Myzus persicae [1] came out at 100%; in the assay on Meloidogyne incognita, 90%. For the same molecule, the pest or weed control at 500 g/ha in the assay on Phaedon cochleariae was determined as 100%; in the assay with Myzus persicae [2], 90%.
For `Cc1ccc(F)cc1S(=O)(=O)NC(=O)c1cn(C)c(-c2ccccc2Cl)n1` [Example 425], the pest or weed control at 20 ppm is 100% in the assay with Myzus persicae [1] and 90% in the assay on Meloidogyne incognita. The pest or weed control at 500 g/ha in the assay on Phaedon cochleariae and in the assay on Myzus persicae [2] was 100% each time.
For `Cn1cc(C(=O)NS(=O)(=O)c2ccccc2I)nc1-c1ccccc1Cl` [Example 428], the pest or weed control at 20 ppm amounted to 100% in the assay with Myzus persicae [1] and 90% with Meloidogyne incognita. Moreover, the pest or weed control at 500 g/ha in the assay with Phaedon cochleariae and in the assay on Myzus persicae [2] was 100% each time.
Take `Cn1cc(C(=O)NS(=O)(=O)c2cc(Br)ccc2Br)nc1-c1ccccc1Cl` [Example 429]: the pest or weed control at 20 ppm in the assay on Myzus persicae [1] and in the assay with Meloidogyne incognita was 100% in each case. Further, the pest or weed control at 500 g/ha in the assay with Phaedon cochleariae worked out at 100%; in the assay on Myzus persicae [2] it was 90%.
Regarding `Cc1ccc(Cl)c(S(=O)(=O)NC(=O)c2cn(C)c(-c3c(F)cccc3F)n2)c1Cl` [Example 434], the pest or weed control at 20 ppm with Myzus persicae [1] and in the assay with Meloidogyne incognita was 100% in each case. The pest or weed control at 500 g/ha in the assay on Phaedon cochleariae and in the assay on Myzus persicae [2] was 100% throughout.
Turning to `Cc1cc(C)c(S(=O)(=O)NC(=O)c2cn(C)c(-c3c(F)cccc3F)n2)c(C)c1` [Example 436], the pest or weed control at 20 ppm in the assay on Myzus persicae [1] was 100%; in the assay on Meloidogyne incognita, 90%. In addition, the pest or weed control at 500 g/ha with Phaedon cochleariae was determined as 100%; with Myzus persicae [2], 90%.
For `Cn1cc(C(=O)NS(=O)(=O)c2ccc(Cl)cc2I)nc1-c1c(F)cccc1F` [Example 439], the pest or weed control at 20 ppm stood at 100% with Myzus persicae [1] and 90% in the assay with Meloidogyne incognita. Also, the pest or weed control at 500 g/ha with Phaedon cochleariae turned out to be 100%; with Myzus persicae [2], 90%.
As for `Cc1cc(Cl)ccc1S(=O)(=O)NC(=O)c1cn(C)c(-c2c(F)cccc2F)n1` [Example 445], the pest or weed control at 20 ppm in the assay with Myzus persicae [1] stood at 90%; in the assay with Meloidogyne incognita it was 100%. In addition, the pest or weed control at 500 g/ha with Phaedon cochleariae and in the assay with Myzus persicae [2] was 100% each time.
Turning to `Cc1cc(Br)ccc1S(=O)(=O)NC(=O)c1cn(C)c(-c2c(F)cccc2F)n1` [Example 446], the pest or weed control at 20 ppm in the assay with Myzus persicae [1] was 100%; in the assay on Meloidogyne incognita, 90%. For the same molecule, the pest or weed control at 500 g/ha amounted to 100% with Phaedon cochleariae and 90% with Myzus persicae [2].
Take `Cn1cc(C(=O)NS(=O)(=O)c2ccc(F)cc2C(F)(F)F)nc1-c1c(F)cccc1F` [Example 448]: the values for the pest or weed control at 20 ppm with Myzus persicae [1] and with Meloidogyne incognita were 100% and 90%, respectively. Also, the pest or weed control at 500 g/ha with Phaedon cochleariae and in the assay on Myzus persicae [2] was 100% throughout.
`Cn1cc(C(=O)NS(=O)(=O)c2ccc(Br)cc2C(F)(F)F)nc1-c1c(F)cccc1F` [Example 449]: the pest or weed control at 20 ppm in the assay on Myzus persicae [1] and in the assay with Meloidogyne incognita was 100% throughout. In addition, the pest or weed control at 500 g/ha with Phaedon cochleariae and in the assay on Myzus persicae [2] was 100% throughout.
With `Cc1ccc(S(=O)(=O)NC(=O)c2cn(C)c(-c3c(F)cccc3F)n2)c(Cl)c1` [Example 450], the values for the pest or weed control at 20 ppm in the assay on Myzus persicae [1] and in the assay with Meloidogyne incognita were 90% and 100%, respectively. Also, the pest or weed control at 500 g/ha in the assay with Phaedon cochleariae and in the assay with Myzus persicae [2] was 100% throughout.
`Cn1cc(C(=O)NS(=O)(=O)c2cccc3ccccc23)nc1-c1c(F)cccc1F` [Example 510]: the values for the pest or weed control at 20 ppm with Myzus persicae [1] and in the assay with Meloidogyne incognita were 100% and 90%, respectively. Also, the pest or weed control at 500 g/ha in the assay on Phaedon cochleariae and in the assay with Myzus persicae [2] was 100% in each case.
With `Cc1ccccc1S(=O)(=O)NC(=O)c1cn(C)c(-c2cc(Cl)ccc2Cl)n1` [Example 517], the pest or weed control at 20 ppm with Myzus persicae [1] and in the assay with Meloidogyne incognita was 100% in each case. Moreover, the pest or weed control at 500 g/ha came to 100% in the assay on Phaedon cochleariae and 90% in the assay on Myzus persicae [2].
For `Cc1ccccc1S(=O)(=O)NC(=O)c1cn(C)c(-c2sccc2Cl)n1` [Example 548], the pest or weed control at 20 ppm with Myzus persicae [1] and with Meloidogyne incognita was 90% each time. For the same molecule, the pest or weed control at 500 g/ha turned out to be 83% in the assay with Phaedon cochleariae and 90% with Myzus persicae [2].
As for `Cc1cccc(Cl)c1S(=O)(=O)NC(=O)c1cn(C)c(-c2cccc(Cl)c2Cl)n1` [Example 556], the pest or weed control at 20 ppm in the assay with Myzus persicae [1] was 100%; in the assay on Meloidogyne incognita, 90%. Moreover, the pest or weed control at 500 g/ha with Phaedon cochleariae amounted to 100%; with Myzus persicae [2], 90%.
Regarding `Cc1cccc(C(F)(F)F)c1S(=O)(=O)NC(=O)c1cn(C)c(-c2cccc(Cl)c2Cl)n1` [Example 561], the pest or weed control at 20 ppm in the assay on Myzus persicae [1] and in the assay on Meloidogyne incognita was 100% throughout. Further, the pest or weed control at 500 g/ha turned out to be 100% in the assay on Phaedon cochleariae and 90% with Myzus persicae [2].
As for `COc1ccc(Cl)c(S(=O)(=O)NC(=O)c2cn(C)c(-c3ncccc3Cl)n2)c1` [Example 575], the pest or weed control at 20 ppm came out at 100% in the assay on Myzus persicae [1] and 90% in the assay with Meloidogyne incognita. Moreover, the pest or weed control at 500 g/ha with Phaedon cochleariae was 83%; in the assay on Myzus persicae [2], 90%.
As for `Cc1ccccc1S(=O)(=O)NC(=O)c1cn(C)c(-c2ncccc2Br)n1` [Example 579], the pest or weed control at 20 ppm in the assay with Myzus persicae [1] was 100%; in the assay on Meloidogyne incognita it was 90%. The pest or weed control at 500 g/ha in the assay on Phaedon cochleariae and in the assay on Myzus persicae [2] was 100% in each case.
